Legend:
[1] = target: intracellular tail minus SSTR2A fusion protein (HT1080 clones tail-1, tail-4) (Homo sapiens, UniProt P30874)
[2] = target: full length SSTR2A fusion protein (HT1080 clones 21, 3, 11) (Homo sapiens, UniProt P30874)
full length SSTR2A fusion protein (HT1080 clones 21, 3, 11), sequence (P30874 whole entry, the tested form may be a part): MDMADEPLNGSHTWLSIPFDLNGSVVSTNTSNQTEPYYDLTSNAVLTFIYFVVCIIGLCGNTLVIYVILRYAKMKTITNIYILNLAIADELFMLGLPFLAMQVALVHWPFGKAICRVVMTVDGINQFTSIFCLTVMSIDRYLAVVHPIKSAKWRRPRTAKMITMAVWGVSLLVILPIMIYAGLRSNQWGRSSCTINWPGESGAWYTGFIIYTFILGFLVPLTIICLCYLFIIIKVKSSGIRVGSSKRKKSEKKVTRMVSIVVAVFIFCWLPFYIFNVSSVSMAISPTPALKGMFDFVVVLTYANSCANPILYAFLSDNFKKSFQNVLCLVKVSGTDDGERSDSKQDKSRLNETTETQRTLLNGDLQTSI

intracellular tail minus SSTR2A fusion protein (HT1080 clones tail-1, tail-4), sequence (P30874 1-314): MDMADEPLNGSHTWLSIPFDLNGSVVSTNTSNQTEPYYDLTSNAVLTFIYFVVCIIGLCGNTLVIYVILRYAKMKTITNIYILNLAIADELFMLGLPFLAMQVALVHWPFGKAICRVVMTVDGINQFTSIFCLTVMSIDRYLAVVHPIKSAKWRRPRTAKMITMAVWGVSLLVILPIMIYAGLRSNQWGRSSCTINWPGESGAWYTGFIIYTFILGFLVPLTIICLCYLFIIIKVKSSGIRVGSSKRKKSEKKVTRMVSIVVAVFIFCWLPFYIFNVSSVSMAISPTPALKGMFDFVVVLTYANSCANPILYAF

^111In-octreotide
counts per minute bound [1]: more counts per minute without the addition of cold somastotin-28 then with its addition | Specific binding, order among clones [2]: greater for clone 21 than 3 than 11 | counts per minute bound [2]: more counts per minute without the addition of cold somastotin-28 then with its addition

Source: patent publication US8278066B2, “Truncated somatostatin receptors” (Board of Regents, The University of Texas System, priority 2001, dated 2012)
